{
  "source": "PubChem BioAssay AID256",
  "about": "(DTP/NCI, 2004)",
  "test_system": "CD2F1 mice, L1210 leukemia ip, survival T/C",
  "assay": "NCI In Vivo Anticancer Drug Screen. Data for tumor model L1210 Leukemia (intraperitoneal) in CD2F1 (CDF1) mice",
  "conditions": "higher = longer survival",
  "outline": "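Transplantable tumor in mice; compound-treated vs vehicle-treated groups. Read-out = treated/control ratio of the measured endpoint.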",
  "key": {"[1]": {"conditions": "endpoint: mean survival time, dose: 25.0 mg/kg/injection, schedule: Q04DX002 (ip), vehicle: saline with Tween-80"}, "[2]": {"conditions": "endpoint: mean survival time, dose: 50.0 mg/kg/injection, schedule: Q04DX002 (ip), vehicle: saline with Tween-80"}, "[3]": {"conditions": "endpoint: mean survival time, dose: 400.0 mg/kg/injection, schedule: Q04DX002 (ip), vehicle: saline with Tween-80"}, "[4]": {"conditions": "endpoint: mean survival time, dose: 100.0 mg/kg/injection, schedule: Q01DX009 (ip), vehicle: saline with Tween-80"}, "[5]": {"conditions": "endpoint: mean survival time, dose: 200.0 mg/kg/injection, schedule: Q01DX009 (ip), vehicle: saline with Tween-80"}, "[6]": {"conditions": "endpoint: mean survival time, dose: 400.0 mg/kg/injection, schedule: Q01DX009 (ip), vehicle: saline with Tween-80"}},
  "note": "Several values for one entry are separate records, joined by “and”; a condition that tells them apart may be missing. Identical values can stand only once. Toxic doses and inconclusive results are not listed. Starred links: 1 amine or outer side, 2 acyl side, 3 side chain; linkers in the order of their positions; H or OH if unused. Non-standard residues stand in square brackets, D forms with d. Residues, ends and D or L forms follow the SMILES beside them. *: point of attachment. X2 = CCC(=O)CC1CC(C)CC(C(=O)[*:2])N1[*:1]; X1 = CCCCCCCCC(C)C(=O)*; Aib = CC(C)(N)C(=O)O; X3 = CC(CN(C)CCO)N*",
  "data": [
    {"smiles": "COc1ccc(NC(=O)Nc2cccc(Cl)c2)c(Cl)c1", "values": [
      {"measurement": "T/C", "setting": "[1]", "value": "88 % of control"},
      {"measurement": "T/C", "setting": "[2]", "value": "92 % of control"},
      {"measurement": "T/C", "setting": "[3]", "value": "88 % of control"}
    ]},
    {"smiles": "CCCCCCCCCCCCCCCCCC(=O)Nc1ccn(C2OC(CO)C(O)C2O)c(=O)n1", "note": "(centres undefined)", "values": [
      {"measurement": "T/C", "setting": "[1]", "value": "229 % of control and 252 % of control"},
      {"measurement": "T/C", "setting": "[2]", "value": "271 % of control and 325 % of control"},
      {"measurement": "T/C", "setting": "endpoint: mean survival time, dose: 75.0 mg/kg/injection, schedule: Q04DX002 (ip), vehicle: saline with Tween-80", "value": "365 % of control"},
      {"measurement": "T/C", "setting": "endpoint: mean survival time, dose: 100.0 mg/kg/injection, schedule: Q04DX002 (ip), vehicle: saline with Tween-80", "value": "273 % of control and 313 % of control"},
      {"measurement": "T/C", "setting": "endpoint: mean survival time, dose: 200.0 mg/kg/injection, schedule: Q04DX002 (ip), vehicle: saline with Tween-80", "value": "122 % of control"},
      {"measurement": "T/C", "setting": "[3]", "value": "110 % of control"}
    ]},
    {"smiles": "O=C(N=C1OC2C(OC(=O)c3ccccc3)C(COC(=O)c3ccccc3)OC2N1C(=O)c1ccccc1)c1ccccc1", "note": "(centres undefined)", "values": [
      {"measurement": "T/C", "setting": "endpoint: mean survival time, dose: 100.0 mg/kg/injection, schedule: Q01DX009 (ip), vehicle: saline", "value": "100 % of control"},
      {"measurement": "T/C", "setting": "endpoint: mean survival time, dose: 200.0 mg/kg/injection, schedule: Q01DX009 (ip), vehicle: saline", "value": "100 % of control"},
      {"measurement": "T/C", "setting": "endpoint: median survival time, dose: 100.0 mg/kg/injection, schedule: Q04DX003 (ip), vehicle: saline sonified", "value": "87 % of control"},
      {"measurement": "T/C", "setting": "endpoint: median survival time, dose: 200.0 mg/kg/injection, schedule: Q04DX003 (ip), vehicle: saline sonified", "value": "100 % of control"},
      {"measurement": "T/C", "setting": "endpoint: median survival time, dose: 400.0 mg/kg/injection, schedule: Q04DX003 (ip), vehicle: saline sonified", "value": "100 % of control"}
    ]},
    {"smiles": "CCOC(=O)CNC(=O)Nc1ccccc1OCC", "values": [
      {"measurement": "T/C", "setting": "endpoint: mean survival time, dose: 50.0 mg/kg/injection, schedule: Q01DX009 (ip), vehicle: saline with Tween-80", "value": "89 % of control"},
      {"measurement": "T/C", "setting": "[4]", "value": "89 % of control"},
      {"measurement": "T/C", "setting": "[5]", "value": "93 % of control"}
    ]},
    {"smiles": "CC(N)CCCO", "note": "(centres undefined)", "values": [
      {"measurement": "T/C", "setting": "endpoint: mean survival time, dose: 200.0 mg/kg/injection, schedule: Q01DX001 (ip), vehicle: saline", "value": "109 % of control"},
      {"measurement": "T/C", "setting": "endpoint: mean survival time, dose: 400.0 mg/kg/injection, schedule: Q01DX001 (ip), vehicle: saline", "value": "94 % of control"}
    ]},
    {"smiles": "CCOc1ccccc1NC(=O)C(Br)C(Br)C(=O)O", "note": "(centres undefined)", "values": [
      {"measurement": "T/C", "setting": "endpoint: mean survival time, dose: 100.0 mg/kg/injection, schedule: Q01DX001 (ip), vehicle: saline with Tween-80", "value": "110 % of control"},
      {"measurement": "T/C", "setting": "endpoint: mean survival time, dose: 200.0 mg/kg/injection, schedule: Q01DX001 (ip), vehicle: saline with Tween-80", "value": "112 % of control"},
      {"measurement": "T/C", "setting": "endpoint: mean survival time, dose: 400.0 mg/kg/injection, schedule: Q01DX001 (ip), vehicle: saline with Tween-80", "value": "108 % of control"}
    ]},
    {"smiles": "O=C(NNC(=O)C(F)(F)F)c1ccccc1", "values": [
      {"measurement": "T/C", "setting": "endpoint: mean survival time, dose: 12.5 mg/kg/injection, schedule: Q01DX009 (ip), vehicle: other", "value": "92 % of control"},
      {"measurement": "T/C", "setting": "endpoint: mean survival time, dose: 25.0 mg/kg/injection, schedule: Q01DX009 (ip), vehicle: other", "value": "94 % of control"},
      {"measurement": "T/C", "setting": "endpoint: mean survival time, dose: 50.0 mg/kg/injection, schedule: Q01DX009 (ip), vehicle: other", "value": "94 % of control"},
      {"measurement": "T/C", "setting": "endpoint: mean survival time, dose: 100.0 mg/kg/injection, schedule: Q01DX009 (ip), vehicle: other", "value": "118 % of control"},
      {"measurement": "T/C", "setting": "endpoint: mean survival time, dose: 200.0 mg/kg/injection, schedule: Q01DX009 (ip), vehicle: other", "value": "109 % of control"}
    ]},
    {"smiles": "CCCCCCCCC(C)C(=O)N1CCCC1C(=O)N1C(CC(=O)CC)CC(C)CC1C(=O)NC(C)C(=O)NC(C)(C)C(=O)NC(C)(C)C(=O)NC(C(=O)NC(C)C(=O)NC(C)(C)C(=O)NC(C)(C)C(=O)NC(C)CN(C)CCO)C(C)CC", "note": "(centres undefined) (X1-P[X2]A[Aib][Aib]IA[Aib][Aib]-X3; configuration not given here)", "values": [
      {"measurement": "T/C", "setting": "endpoint: mean survival time, dose: 0.15 mg/kg/injection, schedule: Q01DX009 (ip), vehicle: Klucel (hydroxypropylcellulose) (HPC)", "value": "110 % of control"},
      {"measurement": "T/C", "setting": "endpoint: mean survival time, dose: 0.31 mg/kg/injection, schedule: Q01DX009 (ip), vehicle: Klucel (hydroxypropylcellulose) (HPC)", "value": "111 % of control and 112 % of control"},
      {"measurement": "T/C", "setting": "endpoint: mean survival time, dose: 0.62 mg/kg/injection, schedule: Q01DX009 (ip), vehicle: Klucel (hydroxypropylcellulose) (HPC)", "value": "115 % of control and 104 % of control"},
      {"measurement": "T/C", "setting": "endpoint: mean survival time, dose: 1.25 mg/kg/injection, schedule: Q01DX009 (ip), vehicle: Klucel (hydroxypropylcellulose) (HPC)", "value": "122 % of control and 108 % of control"},
      {"measurement": "T/C", "setting": "endpoint: mean survival time, dose: 2.5 mg/kg/injection, schedule: Q01DX009 (ip), vehicle: Klucel (hydroxypropylcellulose) (HPC)", "value": "115 % of control and 117 % of control"},
      {"measurement": "T/C", "setting": "endpoint: mean survival time, dose: 5.0 mg/kg/injection, schedule: Q01DX009 (ip), vehicle: Klucel (hydroxypropylcellulose) (HPC)", "value": "103 % of control"}
    ]},
    {"smiles": "CCOC(=O)N1CCc2cc(OC)c(OC)cc2C1=C(c1ccccc1)c1ccccc1", "values": [
      {"measurement": "T/C", "setting": "[4]", "value": "91 % of control"},
      {"measurement": "T/C", "setting": "endpoint: mean survival time, dose: 100.0 mg/kg/injection, schedule: Q04DX003 (ip), vehicle: saline with Tween-80", "value": "86 % of control"},
      {"measurement": "T/C", "setting": "[5]", "value": "95 % of control"},
      {"measurement": "T/C", "setting": "[6]", "value": "88 % of control"},
      {"measurement": "T/C", "setting": "endpoint: mean survival time, dose: 400.0 mg/kg/injection, schedule: Q04DX003 (ip), vehicle: saline with Tween-80", "value": "86 % of control"}
    ]},
    {"smiles": "CC(C)OC(=O)Nc1cc(C(F)(F)F)cc(C(F)(F)F)c1", "values": [
      {"measurement": "T/C", "setting": "[4]", "value": "113 % of control"},
      {"measurement": "T/C", "setting": "[5]", "value": "94 % of control"},
      {"measurement": "T/C", "setting": "[6]", "value": "92 % of control"}
    ]},
    {"smiles": "O=C1C2=C(Nc3cc([N+](=O)[O-])ccc3N2)OC1c1ccccn1", "note": "(centres undefined)", "values": [
      {"measurement": "T/C", "setting": "endpoint: median survival time, dose: 25.0 mg/kg/injection, schedule: Q01DX005 (ip), vehicle: Klucel (hydroxypropylcellulose) (HPC)", "value": "102 % of control"},
      {"measurement": "T/C", "setting": "endpoint: median survival time, dose: 50.0 mg/kg/injection, schedule: Q01DX005 (ip), vehicle: Klucel (hydroxypropylcellulose) (HPC)", "value": "108 % of control"},
      {"measurement": "T/C", "setting": "endpoint: median survival time, dose: 100.0 mg/kg/injection, schedule: Q01DX005 (ip), vehicle: Klucel (hydroxypropylcellulose) (HPC)", "value": "108 % of control"}
    ]}
  ]
}
